Test results as given in US11815435B2, “Beta glucan immunopharmacodynamics” (HiberCell, Inc., priority 2017, dated 2023).

How the values were obtained:
[1] = tested on: innate immune activation marker genes; test: Gene expression in whole blood (Quantigeneplex); assay type: in vivo, human; conditions: 3 hr post-infusion vs. pre-dose, no premedications
From the text: Whole blood was collected in PaxGene blood collection tubes (BD Biosciences) at various time points pre- and post-PGG administration. RNA was isolated and assayed by Quantigeneplex (Affymetrix) and the relative fold changes were log 2 transformed. Data presented are from subjects treated with PGG without premedications.

[2] = tested on: IPD responses (SC5b-9, monocyte and neutrophil mobilization, MCP-1, CIC, IL-8); test: Immunopharmacodynamic (IPD) responses taken together: dose and dosing interval comparison; assay type: in vivo, human; conditions: for IPD response: mid ABA (20-50 μg/ml) subjects
Protocol: In Cohort 3, subjects received either 2 mg/kg PGG or 4 mg/kg PGG by IV infusion over 1-2 hours. The subjects were administered either dose of PGG once weekly for 2 weeks, then given a 2 week wash out (no PGG) and finally received one more dose of PGG (week 5). Adverse events and complete blood counts were evaluated. In addition, whole blood and serum was evaluated for the following at various time points post-infusion: PGG binding to immune cells (monocytes, neutrophils, B-cells, DC subsets), complement activation (C5a and Sc5b9), serum cytokine/chemokine levels, IgG ABA levels, flow cytometry of immune cells, circulating immune complex formation and Quantigene analysis of transcriptional profile. Table 1 lists each subject's pre-dose IgG ABA levels, PGG dose and whether they received premedications.
Thus, changes in IPD responses induced by PGG administration are dependent on ABA levels.
IPD responses were compared between subjects within subgroups administered doses of either 2 mg/kg and 4 mg/kg PGG. […] Therefore, an effective dose of PGG for Mid-ABA subjects is higher than an effective dose of PGG for High-ABA subjects. This is beneficial to High-ABA subjects because with a lower PGG dose, they will experience fewer adverse events.
Increasing the time between soluble β-glucan doses may not only promote repeated acute IPD responses but also enhance acute IPD responses, which may increase the effectiveness of soluble β-glucan therapy. Subjects in Cohort 3, as described above, were administered a dose of PGG once weekly for 2 weeks, then given a 2 week wash out (no PGG) and finally received one more dose of PGG (week 5).
Levels of CIC (FIG. 19), SC5b-9 (FIG. 20), neutrophil mobilization (FIG. 21), IL-8 (FIG. 22) and MCP-1 (FIG. 22) were also measured over the course of treatment. […] In some cases, acute IPD responses were only seen with the final dose—after the 2 week dosing interval. In other cases, the acute IPD responses were enhanced with the final dose. Thus, for some immunotherapies or even some individuals, increasing the amount of time between dosing with soluble β-glucan may lead to enhanced efficacy.

[3] = tested on: anti-β-glucan antibody (ABA IgG, ABA IgM); test: Example 1: IgG and IgM ABA levels in a cancer subject on IVIG, IMPRIME PGG and pembrolizumab; assay type: in vivo, human; conditions: same subject and regimen
Protocol: Soluble β-glucan immunotherapy was administered to a subject diagnosed with glucaganoma. The subject's ABA level prior to immunotherapy treatment placed them in the Low-ABA subgroup, and therefore, their ABA level was boosted by administration of IVIG. GAMMAGARD at 100 mg/ml was intravenously administered prior to each treatment, which provided 161 μg ABA/ml. […] Each cycle was 3 weeks.

[4] = tested on: intermediate monocytes; switched memory B cells and plasmablasts; test: Flow cytometry of PBMC for monocyte populations, activation markers and B cells; assay type: in vivo, human
Protocol: Here, PBMC were stained with indicating markers and analyzed by flow cytometry. Each of the populations were assessed for expression of activation markers CD86, ICAM-1, HLA-DR and PD-L1 24 hours after infusion. In addition, approximately one week post-infusion, increased switched memory B cells and plasmablasts were detected (data not shown).

[5] = tested on: neutrophils, monocytes, B cells and subsets of dendritic cells (DC); test: In vivo immune cell binding by flow cytometry from whole blood at EOI; parameters: species or system human; conditions: High-ABA subjects, anti-PGG MAb staining
Protocol: In vivo immune cell binding was assessed by flow cytometry from whole blood of subjects dosed with PGG at the EOI. Gates were set based on BFDPV staining (anti-PGG MAb) on blood cells prior to infusion.

SC5b-9 = test: Example 1: complement activation (SC5b-9) in the cancer subject; assay type: in vivo, human; conditions: cancer subject after conversion to High-ABA subgroup; IMPRIME PGG 4 mg/kg once every 3 weeks
[6] = tested on: MIP-1b, IP-10, IL-1 RA and I-TAC; test: Example 1: cytokine levels in the cancer subject; assay type: in vivo, human
Protocol: Cytokine levels were also measured during the immunotherapy treatment. […] In addition, less frequent dosing is more convenient and economical for the subject.

## β(1,6)-[poly-(1,3)-D-glucopyranosyl]-poly-β(1,3)-D-glucopyranose [PGG]
[1]
  expression of innate immune activation marker genes: consistently increased in subjects with higher levels of ABA
[2]; Cohort 3, dosing after a 2 week dosing interval
  acute IPD responses (CIC, SC5b-9, neutrophil mobilization, IL-8, MCP-1): generated or enhanced
[2]; low-ABA subjects, PGG administration
  changes in IPD responses: very little to no changes in responses
[2]; 2 mg/kg PGG
  IPD response: minimal response
[2]; 4 mg/kg PGG
  IPD response: responded much better (on par with High-ABA subjects)
[2]; subjects with ABA>50 μg/ml
  IPD responses, 2 mg/kg vs 4 mg/kg dose: similar
[3]; cycle 1, day 2 EOI IMPRIME
  ABA IgG: 17.9 µg/mL
  ABA IgM: 6.0 µg/mL
[3]; cycle 1, day 3
  ABA IgG: 14.5 µg/mL
  ABA IgM: 8.3 µg/mL
[3]; cycle 1, day 9
  ABA IgG: 10.2 µg/mL
  ABA IgM: 10.1 µg/mL
[3]; cycle 2, day 1 EOI-IMPRIME
  ABA IgG: 50.4 µg/mL
  ABA IgM: 11.7 µg/mL
[3]; cycle 2, day 1 pre-IVIG
  ABA IgG: 22.3 µg/mL
  ABA IgM: 18.5 µg/mL
[3]; cycle 3, day 1 EOI-IMPRIME
  ABA IgG: 57.4 µg/mL
[3]; cycle 3, day 1 pre-IVIG
  ABA IgG: 21.9 µg/mL
[4]; 24 hrs after EOI, High-ABA subjects
  appearance of intermediate monocytes and activation markers: a population of intermediate monocytes expressing higher levels of the activation markers CD86, PD-L1 and HLA-DR was observed
[4]; approximately one week post-infusion, data not shown
  switched memory B cells and plasmablasts: increased
[5]
  in vivo immune cell binding: bound to neutrophils, monocytes, B cells and subsets of dendritic cells (DC)
SC5b-9
  complement activation (SC5b-9 levels): Acute increases in complement activation
[6]; cancer subject after conversion to High-ABA group, IMPRIME PGG 4 mg/kg once every 3 weeks
  cytokine levels (MIP-1b, IP-10, IL-1 RA, I-TAC): acute IPD responses were seen
[6]; cancer subject, soluble β-glucan administered once every 3 weeks (SC5b-9 and cytokines)
  recurrence of acute IPD responses: robust, acute IPD responses occurred with each administration
